Experiments:
[1] = test system: cattle; assay: Reduction of ammonia gas emissions from cattle fed lubabegron for 91 days in cattle pen enclosures; format: in vivo
Source text: Prepare lubabegron (L) as 4.5 g/lb of Type A Medicated Article. In a facility having at least eight cattle pen enclosures (CPEs), test two cycles of cattle, each cycle representing all dose (0, 1.25, 5, and 20 g/ton) and gender (steer and heifer) combinations. For the purpose of this example, a cycle refers to a group of 112 animals housed concurrently. Within each cycle, there are 2 cohorts of animals (56 animals per cohort). A cohort refers to a group of same gender animals representing each of the 4 doses. Up to 4 cycles are used to provide a total of 4 cohorts per gender.
Upon receipt of the cattle, allocate the cattle to CPEs to acclimate for 7 days. After the acclimation phase, for 91 days orally treat via feed one fourth of the cattle allocated to CPEs L 0 g/ton/day; one fourth 1.25 g/ton/day; 5 g/ton/day; and 20 g/ton/day (100% dry matter basis). Provide feed and water ad libitum. On day 91, collect body weight and load cattle for transport to the slaughter facility. On day 92, slaughter the cattle and evaluate the carcass. During the study, monitor and collect ammonia gas emissions data. Measure the ammonia emissions over the treatment period and normalize by body weight (BW) for the period (Days 0-7, 0-14, 0-28, 0-56, and 0-91) and hot carcass weight (HCW) (Days 0-91) (g of gas/animal; g of gas/lb of live BW; g of gas/lb of HCW). Using the process described above, the following results are achieved.

[2] = test system: cattle; assay: Reduction of carbon dioxide gas emissions from cattle fed lubabegron for 14 days in individual chambers; format: in vivo
Source text: Prepare lubabegron (L) as 4.5 g/lb of Type A Medicated Article. In an appropriate facility having cattle chambers or rooms for individual animals (chambers), test ten cycles of twelve cattle each, each cycle representing all dose (0, 1.25, 5, and 20 g/ton) with a mixture of genders (steer and heifer).
Upon receipt of the cattle, allocate the cattle to chambers to acclimate for 7 days. After the acclimation phase, for 14 days orally treat via feed one fourth of the cattle allocated to chambers L 0 g/ton/day; one fourth 1.25 g/ton/day; 5 g/ton/day; and 20 g/ton/day (100% dry matter basis). Provide feed and water ad libitum. On day 14, collect body weight and load cattle for transport to the slaughter facility. On day 15, slaughter the cattle and evaluate the carcass. During the study, monitor and collect carbon dioxide gas emissions data. […] Using the process described above, the following results are achieved.

## CC(C)(Cc1ccc(Oc2ncccc2C#N)cc1)NC[C@H](O)COc1ccccc1-c1cccs1 [lubabegron]
[1]; 1.25 g/ton in feed, Day 0-7
  Reduction, as compared to control, g of NH3 gas/animal: 5% (5%)
  Reduction, as compared to control, g of NH3 gas/lb of live BW: 5% (5%)
[1]; 1.25 g/ton in feed, Day 0-14
  Reduction, as compared to control, g of NH3 gas/animal: 12%
  Reduction, as compared to control, g of NH3 gas/lb of live BW: 14%
[1]; 1.25 g/ton in feed, Day 0-28
  Reduction, as compared to control, g of NH3 gas/animal: 15%
  Reduction, as compared to control, g of NH3 gas/lb of live BW: 16%
[1]; 1.25 g/ton in feed, Day 0-56
  Reduction, as compared to control, g of NH3 gas/animal: 11%
  Reduction, as compared to control, g of NH3 gas/lb of live BW: 13%
[1]; 1.25 g/ton in feed, Day 0-91
  Reduction, as compared to control, g of NH3 gas/animal: 9%
  Reduction, as compared to control, g of NH3 gas/lb of HCW: 13%
  Reduction, as compared to control, g of NH3 gas/lb of live BW: 11%
[1]; 5 g/ton in feed, Day 0-7
  Reduction, as compared to control, g of NH3 gas/animal: 7%
  Reduction, as compared to control, g of NH3 gas/lb of live BW: 8%
[1]; 5 g/ton in feed, Day 0-14
  Reduction, as compared to control, g of NH3 gas/animal: 16%
  Reduction, as compared to control, g of NH3 gas/lb of live BW: 17%
[1]; 5 g/ton in feed, Day 0-28
  Reduction, as compared to control, g of NH3 gas/animal: 20%
  Reduction, as compared to control, g of NH3 gas/lb of live BW: 21%
[1]; 5 g/ton in feed, Day 0-56
  Reduction, as compared to control, g of NH3 gas/animal: 16%
  Reduction, as compared to control, g of NH3 gas/lb of live BW: 18%
[1]; 5 g/ton in feed, Day 0-91
  Reduction, as compared to control, g of NH3 gas/animal: 12%
  Reduction, as compared to control, g of NH3 gas/lb of HCW: 16%
  Reduction, as compared to control, g of NH3 gas/lb of live BW: 14%
[1]; 20 g/ton in feed, Day 0-7
  Reduction, as compared to control, g of NH3 gas/animal: 21%
  Reduction, as compared to control, g of NH3 gas/lb of live BW: 22%
[1]; 20 g/ton in feed, Day 0-14
  Reduction, as compared to control, g of NH3 gas/animal: 27% (27%)
  Reduction, as compared to control, g of NH3 gas/lb of live BW: 27% (27%)
[1]; 20 g/ton in feed, Day 0-28
  Reduction, as compared to control, g of NH3 gas/animal: 25%
  Reduction, as compared to control, g of NH3 gas/lb of live BW: 26%
[1]; 20 g/ton in feed, Day 0-56
  Reduction, as compared to control, g of NH3 gas/animal: 19% (19%)
  Reduction, as compared to control, g of NH3 gas/lb of live BW: 19% (19%)
[1]; 20 g/ton in feed, Day 0-91
  Reduction, as compared to control, g of NH3 gas/animal: 13%
  Reduction, as compared to control, g of NH3 gas/lb of HCW: 17%
  Reduction, as compared to control, g of NH3 gas/lb of live BW: 15%
[2]; 1.25 g/ton in feed, Day 0-7
  Reduction, as compared to control, g of CO2 gas/animal: (0.2%)
  Reduction, as compared to control, g of CO2 gas/lb of live BW: 0%
[2]; 1.25 g/ton in feed, Day 0-14
  Reduction, as compared to control, g of CO2 gas/animal: (3%)
  Reduction, as compared to control, g of CO2 gas/lb of HCW: 4%
  Reduction, as compared to control, g of CO2 gas/lb of live BW: 2%
[2]; 1.25 g/ton in feed, Day 7-14
  Reduction, as compared to control, g of CO2 gas/animal: (5%)
  Reduction, as compared to control, g of CO2 gas/lb of HCW: 6%
  Reduction, as compared to control, g of CO2 gas/lb of live BW: 5%
[2]; 5 g/ton in feed, Day 0-7
  Reduction, as compared to control, g of CO2 gas/animal: (4%)
  Reduction, as compared to control, g of CO2 gas/lb of live BW: 3%
[2]; 5 g/ton in feed, Day 0-14
  Reduction, as compared to control, g of CO2 gas/animal: (7%)
  Reduction, as compared to control, g of CO2 gas/lb of HCW: 7%
  Reduction, as compared to control, g of CO2 gas/lb of live BW: 6%
[2]; 5 g/ton in feed, Day 7-14
  Reduction, as compared to control, g of CO2 gas/animal: (10%)
  Reduction, as compared to control, g of CO2 gas/lb of HCW: 10%
  Reduction, as compared to control, g of CO2 gas/lb of live BW: 9%
[2]; 20 g/ton in feed, Day 0-7
  Reduction, as compared to control, g of CO2 gas/animal: (4%)
  Reduction, as compared to control, g of CO2 gas/lb of live BW: 4%
[2]; 20 g/ton in feed, Day 0-14
  Reduction, as compared to control, g of CO2 gas/animal: (7%)
  Reduction, as compared to control, g of CO2 gas/lb of HCW: 7%
  Reduction, as compared to control, g of CO2 gas/lb of live BW: 6%
[2]; 20 g/ton in feed, Day 7-14
  Reduction, as compared to control, g of CO2 gas/animal: (9%)
  Reduction, as compared to control, g of CO2 gas/lb of HCW: 10%
  Reduction, as compared to control, g of CO2 gas/lb of live BW: 9%

From patent publication US12677847B2, “Methods and formulations for reducing bovine emissions” (Elanco US Inc., priority 2015, dated 2026)
